Assay results as given in patent US20070191485A1, “Active oxygen scavenging composition including citrulline” (Nara Institute of Science and Technology, priority 2001, published 2007).
Read-outs that look alike come from different tables or passages of the source.

Assays:
[1] = system: malate dehydrogenase (MDH); test: Effect of solutes on enzymatic activity of malate dehydrogenase (MDH); assay type: biochemical, wild water-melon (Citrullus lanatus sp. No. 101117-1)
Procedure: (§1) Safety of citrulline was compared with that of arginine, by investigation of inhibition on enzymatic activities of malate dehydrogenase (MDH) and lactate dehydrogenase (LDH), caused by high concentration citrulline and arginine. Chloride ion was used as ion pair for arginine, and assay on potassium chloride was performed to evaluate effect of the chloride ion as well.
(§2) Leaf tissue derived from wild water-melon (Citrullus lanatus sp. No. 101117-1) was fractured under cooling with liquid nitrogen. Then after extraction with extraction buffer (50 mM Tris-HCl, pH=7.5, 5 mM DTT, 5 μg/ml BSA, 15% glycerol), supernatant obtained by centrifugation at 10,000 g for 5 minutes was used as crude extraction fraction of malate dehydrogenase (MDH). Pig purified authentic enzyme available from Oriental Co., was used as lactate dehydrogenase (LDH). MDH reaction solution contained 100 mM Tris-HCl pH 7.5, 150 μM NADH, 250 μM oxaloacetic acid and 10 μL of enzyme solution, and the total volume of the solution was adjusted to 1 mL. As LDH reaction solution, a mixture containing 10 mM Tris-HCl pH 7.5, 150 μM NADH, 250 μM lithium pyruvate and 10 μL of enzyme solution was used. When effect of various kinds of solutes, e.g. citrulline, on enzymatic activity is to be investigated, pH of the solution was re-adjusted to 7.5 by using KOH after addition of the solute at various concentration. The reaction started at 25° C. by addition of substrate, then initial rate was determined by alteration of absorbance at 340 nm, accompanied by decrease of NADH. Incidentally, in FIG. 2 and FIG. 3, white columns indicate the results of citrulline, black columns indicate those of arginine chloride, and hatched columns indicate those of potassium chloride, respectively.

[2] = system: lactate dehydrogenase (LDH); test: Effect of solutes on enzymatic activity of lactate dehydrogenase (LDH); assay type: biochemical, Pig
Procedure: as §1, §2

[3] = Kinetic analysis of reaction with hydroxyl radical (competition with hydroxylation of salicylic acid); details: for Reaction rate constant (with hydroxyl radical): calculated from competitive reaction theory, mannitol as standard
Procedure: To evaluate ability of citrulline as an active oxygen scavenger, reaction rate between citrulline and hydroxyl radical was determined. Generation of hydroxyl radical was performed by a system using ascorbic acid and hydrogen peroxide. Here hydroxylation of salicylic acid was used as an index for radical generation. The reaction mixture contained 40 mM of K-Pi buffer, pH 7.4, 0.26 mM of ascorbate, 0.15 mM of FeEDTA, 0.6 mM of H2O2, 2 mM of salicylate and various compatible solutes, then the total volume was adjusted to 400 μL. After reaction at 25° C. for 90 minutes, reaction product of salicylic acid and a hydroxyl radical (namely, 2,3-dihydroxybenzoic acid) was altered to its chromogenic derivative. Then it was determined by absorbance at 510 nm. As the result, the secondary reaction rate constant on reaction of citrulline and hydroxyl radical was calculated from competitive reaction theory. As the standard reaction rate constant, a reported value of mannitol (1.7×10^9 M^−1 s^−1) was used.
The secondary reaction rate constants between the solutes and hydroxyl radical were roughly calculated.

pyruvate kinase (PK) = test: Protection of pyruvate kinase (PK) activity from injury by hydroxyl radical; assay type: biochemical, porcine; details: after 120 minutes (about 36% without citrulline)
Procedure: The ability of citrulline to protect bio-molecules, such as enzymes or nucleic acids, from hydroxyl radical was investigated. That is, investigation on the effect of hydroxyl radical exerted to enzymatic activity of pyruvate kinase (PK) was performed. Here, hydroxyl radical was generated by a system using ascorbic acid and hydrogen peroxide. The inactivation mixture contained 100 mM of Tris-HCl buffer (pH 7.4), 2.5 U of porcine PK (available from Oriental CO.), 0.2 mM of ascorbate, 0.15 mM of FeEDTA, 0.6 mM of H2O2 and citrulline at various concentrations. Then the total volume was adjusted to 250 μL. The inactivation reaction started by adding H2O2 at 25° C. and 10 μL of aliquot was sampled at constant intervals. Then residual activity of the enzyme was determined. The reaction mixture for measurement of enzymatic activity contained 80 mM of Tris-HCl buffer (pH 7.4), 7.5 mM of MgCl2, 75 mM of KCl, 3.75 mM of ADP, 0.15 mM of NADH, 10 U of porcine LDH, 0.8 mM of PEP and 10 μL of inactivated PK enzyme. The reaction started by addition of substrate at 25° C., and initial rate was measured by alteration of absorbance at 340 nm, accompanied by increase or decrease of NADH. In FIG. 5, ∘ indicates absence of citrulline, ● indicates presence of 200 mM citrulline, ▴ indicates presence of 400 mM citrulline, and ▪ indicates without generation of active oxygen, respectively.

circular plasmid DNA = test: Protection of circular plasmid DNA from injury by hydroxyl radical (agarose gel electrophoresis); details: after 2 hours
Procedure: Moreover, the effect of citrulline to prevent DNA from active oxygen injury was investigated. A solution containing 200 ng of circular plasmid DNA and various concentrations of citrulline was prepared and hydroxyl radical was generated by addition of 3 mM of H2O2 and 0.01 mM of FeEDTA. Then injury exerted on DNA was evaluated by agarose gel electrophoresis after 2 hours. The results were shown in FIG. 6 and lanes 1 to 7 indicated following experimental systems, respectively. In FIG. 6, lane 1 indicates molecular marker for electrophoresis. Lane 2 indicates a result untreated plasmid DNA. Lane 3 indicates a result from an experimental system wherein trivalent iron is added solely. Lane 4 indicates a result from an experimental system wherein hydroxyl radical was generated by addition of trivalent iron and hydrogen peroxide. Lane 5 indicates a result from an experimental system wherein 50 mM of citrulline was added to the system of lane 4 (the system with generation of active oxygen) to eliminate the generated active oxygen. Lane 6 indicates a result from an experimental system wherein 100 mM of citrulline was added to the system of lane 4 (the system with generation of active oxygen) to eliminate the generated active oxygen. Lane 7 indicates a result from an experimental system wherein 200 mM of citrulline was added to the system of lane 4 (the system with generation of active oxygen) to eliminate the generated active oxygen.

[4] = reported value used as the standard for calculation, cited from earlier work

NC(=O)NCCC[C@H](N)C(=O)O [Citrulline, citrulline]
inhibitory effect on malate dehydrogenase (MDH) ([1]; high concentration of solute): did not cause any inhibitory effect | MDH activity, % of control ([1]; in the presence of 200 mM): about 109% | inhibitory effect on lactate dehydrogenase (LDH) activity ([2]; high concentration of solute): not significant | decrease of LDH enzymatic activity ([2]; in the presence of 600 mM): about 10% | Reaction rate constant (with hydroxyl radical) [3]: 2.9e+09 M⁻¹ s⁻¹ | potency as a scavenger of hydroxyl radical (FIG. 4) ([3]; compared with glycinebetaine, proline, mannitol): most significant among the four compatible solutes | calculated ID50 value (secondary reaction rate constant with hydroxyl radical) ([3]; roughly calculated): about 3×10^9 M^−1 s^−1 | residual activity of PK, % of the initial activity (pyruvate kinase (PK); 200 mM citrulline): 61% | residual activity of PK, % of the initial activity (pyruvate kinase (PK); 400 mM citrulline): 74% | abscission of DNA (circular plasmid DNA; 50 mM citrulline (Lane 5)): markedly reduced | abscission of DNA (circular plasmid DNA; 100 mM citrulline (Lane 6)): markedly reduced | abscission of DNA (circular plasmid DNA; 200 mM citrulline (Lane 7)): markedly reduced

C[N+](C)(C)CC(=O)O [Glycinebetain, glycinebetaine, reference compound]
Reaction rate constant (with hydroxyl radical) [3]: 2.1e+07 M⁻¹ s⁻¹

OC[C@@H](O)[C@@H](O)[C@H](O)[C@H](O)CO [Mannitol, mannitol]
Reaction rate constant (with hydroxyl radical), reported standard value [4]: 1.7e+09 M⁻¹ s⁻¹ | Reaction rate constant (with hydroxyl radical), reported standard value ([4]; listed as mannitol): 1.7e+09 M⁻¹ s⁻¹

O=C(O)[C@@H]1CCCN1 [Proline, proline, reference compound]
Reaction rate constant (with hydroxyl radical) [3]: 3e+08 M⁻¹ s⁻¹

O=C(O)c1ccccc1O [Salicylic acid, salicylic acid, reference compound]
Reaction rate constant (with hydroxyl radical) [3]: 6.3e+09 M⁻¹ s⁻¹

[Cl-].[K+] [potassium chloride, reference compound]
MDH enzymatic activity, % of the control activity ([1]; in the presence of 600 mM): 21% | LDH enzymatic activity, % of the control activity ([2]; in the presence of 600 mM): 64%
